These results are taken from patent US8624027B2, “Combination therapy for treating cancer and diagnostic assays for use therein” (AbbVie Inc., priority 2005, dated 2014).

For one test, the system named is B-cell lymphoma. Nature of the test: Oral efficacy of EXAMPLE 1 in combination therapy, antitumorigenesis on B-cell lymphoma. The class given is in vivo.
For test [1], the system named is HCT116 cells. In words: Cell viability of polyploid cells after ABT-263. Format: cell-based, human. Conditions: cells made polyploid with 200 nM AZD1152 (with or without washout); 1 μM ABT-263 for 24 hours; not in diploid cells. The protocol: (§1) Cell viability was determined 72 hours post-transfection. The red curve represents a synergistic combination. […] HCT116 cells (FIG. 10C-FIG. 10F) were treated for 24 hours with DMSO or 200 nM AZD1152. AZD1152 was then either left in the culture medium (AZD 1152) or washed out by replacing the medium with drug-free growth medium (AZD 1152 washout).
Generally, cells were seeded at >90% viability (as determined by trypan blue exclusion) into 96-well plates overnight, treated with compounds or siRNAs for indicated duration, and the overall cell viability was determined by measuring luminescence.

The subject of test [2] is HCT116 cells. Nature of the test: Caspase-3 activity in polyploid cells (Caspase-GLO 3/7). Format: cell-based, human. Conditions: cells made polyploid with 200 nM AZD1152 (with or without washout); 1 μM ABT-263 for 4 hours; not in diploid cells. The procedure:
as §1
Caspase-3 activity was determined using the Caspase-GLO 3/7 Assay (Promega) in tandem with the CellTiter-GLO viability assay (Promega). Parallel experiments were performed, where in one experiment Caspase-3/7 activity was measured and in the other, cell viability was determined. As Caspase-3/7 activity on a per cell basis reflects both the specific activity of the Caspase-3 enzyme and the number of viable cells, the data are expressed as Caspase-3/7 activity divided by cell viability.

A further test deals with HCT116 tumors. In words: HCT116 tumor xenograft in mice. The class given is in vivo.
For a further test, the system named is mantle cell lymphoma. Nature of the test: Oral efficacy of EXAMPLE 1 in combination therapy, antitumorigenesis on mantle cell lymphoma. Format: in vivo.
A further test deals with BAX and BAK. In words: BAX and BAK activation, immunoprecipitation of active conformers. The class given is cell-based, human. Conditions: HCT116, D54MG, SW620, EJ1 cells made polyploid with 200 nM AZD1152 72 hours, then 1 μM ABT-263. The protocol: HCT116 cells (FIG. 11A) were treated with DMSO or 200 nM AZD1152 for 72 hours followed by 2 hours with 1 μM ABT-263. Conformationally active BAK or BAX was immunoprecipitated and detected by immunoblotting. D54MG and HCT116 cells (FIG. 11B) were treated DMSO or 200 nM AZD1152 for 72 hours prior to the addition of 1 μM ABT-263 for 4 hours. Conformationally active BAK or BAX was immunoprecipitated and detected by immunoblotting (top and middle panel). Cell lysates were also fractionated and Cytochrome C release into the cytosolic fraction was detected by immunoblotting. HCT116, SW620, and D54MG cells (FIG. 11C) were treated with DMSO (untreated) or 200 nM AZD1152 (AZD1152) for 72 hours and the expression of Bcl-2 network components were detected by immunoblotting (FIG. 11D-FIG. 11E) HCT116 cells were treated as in FIG. 11B. Endogenous Bcl-XL and Mcl-1 were immunoprecipitated, and the Bcl-2 network components in the immunecomplexes were detected by immunoblotting.
FIG. 14 BAK and BAX activation in tumor cell lines. D54MG, SW620, and EJ1 cells were treated as in FIG. 17B. Conformationally active BAK and BAX was immunoprecipitated and detected by immunoblotting.
Cell lysates were either prepared using a CHAPS lysis buffer (10 mM HEPES, pH 7.4, 150 mM NaCl, 1% CHAPS) or a cell extraction buffer containing 1% Triton X-100, 0.1% SDS, and 0.5% deoxycholate (Invitrogen). […]

The structures appear in SMILES notation.

In the case of `CC1(C)CCC(c2ccc(Cl)cc2)=C(CN2CCN(c3ccc(C(=O)NS(=O)(=O)c4ccc(N[C@H](CCN5CCOCC5)CSc5ccccc5)c(S(=O)(=O)C(F)(F)F)c4)cc3)CC2)C1` [Example 1, N-(4-(4-((2-(4-chlorophenyl)-5,5-dimethyl-1-cyclohex-1-en-1-yl)methyl)piperazin-1-yl)benzoyl)-4-(((1R)-3-(morpholin-4-yl)-1-((phenylsulfanyl)methyl)propyl)amino)-3-((trifluoromethyl)sulfonyl)benzenesulfonamide], the “efficacy of cytotoxic agents during combination therapy” value was “synergistically enhanced efficacy” with B-cell lymphoma (EXAMPLE 1 orally with etoposide, vincristine, CHOP, rituximab, rapamycin) and “synergistically enhanced efficacy” with mantle cell lymphoma (EXAMPLE 1 orally with rituximab with CHOP, VELCADE). Further, the complete tumor regression in the test on B-cell lymphoma (combination of EXAMPLE 1 and rapamycin) amounted to 70%; in the test with B-cell lymphoma (combination of EXAMPLE 1 and rituximab) it was 70%; in the test with B-cell lymphoma (combination of EXAMPLE 1 and vincristine), 10%; with mantle cell lymphoma (combination of EXAMPLE 1 and bortexomib), 10%; with mantle cell lymphoma (combination of EXAMPLE 1 and rituximab with CHOP), 90%. In addition, the “cell viability of polyploid cells” value with HCT116 cells [1] is “loss of viability”. Further, the “Caspase-3 activity in polyploid cells” value in the test on HCT116 cells [2] is recorded as “induced Caspase-3 activity”. The “time to detection of active BAX conformer in tumors” value in the test with HCT116 tumors (ABT-263 75 mkd PO in tumors from mice pretreated 3 days with AZD1152, not in naive tumors) is at most 4 h. For the same molecule, the “persistence of tumor regression, combination regimen of AZD1152/ABT-263” value in the test with HCT116 tumors (HCT116 colon carcinoma model) is reported as “at least 2 weeks”. Also, the “antitumor efficacy, combination regimen of AZD1152/ABT-263” value in the test on HCT116 tumors (HCT116 colon carcinoma model, tumors ~0.5 gram) was “rapid and more sustained tumor regression”. In addition, the “BAX and BAK activation in polyploid cells” value with BAX and BAK is “rapidly and synergistically induced BAX and BAK activation”.
